Source: the NIST ThermoML archive (doi:10.1016/j.tca.2013.05.017)

Conditions: 101.33 kPa, Crystal 2, Small (less than 1 g) adiabatic calorimetry

O=S(=O)([O-])[O-].[Sr+2] [sulfuric acid, strontium salt (1:1)]
Conditions | molar entropy [J/K/mol]
5 K | 0.01272
10 K | 0.1188
15 K | 0.4903
20 K | 1.25
25 K | 2.413
30 K | 3.947
35 K | 5.8
40 K | 7.917
45 K | 10.25
50 K | 12.75
55 K | 15.38
60 K | 18.11
65 K | 20.88
70 K | 23.69
75 K | 26.51
80 K | 29.33
85 K | 32.13
90 K | 34.9
95 K | 37.65
100 K | 40.36
110 K | 45.67
120 K | 50.82
130 K | 55.82
140 K | 60.67
150 K | 65.39
160 K | 69.99
170 K | 74.46
180 K | 78.81
190 K | 83.06
200 K | 87.2
210 K | 91.24
220 K | 95.18
230 K | 99.04
240 K | 102.82
250 K | 106.52
260 K | 110.15
270 K | 113.73
273.15 K | 114.84
280 K | 117.23
290 K | 120.68
298.15 K | 123.44
300 K | 124.06
310 K | 127.38
320 K | 130.64
